Assays:
[1] = molecular target: T1, 3',5'-cyclic-AMP phosphodiesterase 4D (Homo sapiens, UniProt Q08499); assay: Inhibition of full-length PDE4D2 (unknown origin) using FAM-cAMP as substrate at 1 uM preincubated with compound for 15 mins followed by substrate addition and measured after 30 mins by fluorescence polarization based IMAP assay relative to control; details: time 45.0 min
RAW264.7 [2] = assay: Anti-inflammatory activity in mouse RAW264.7 cells assessed as inhibition of LPS-induced TNF-alpha production at 10 uM incubated for 24 hrs by ELISA relative to control; type: functional; design: scale not given: the % may be the effect or the level left
[3] = molecular target: T1, 3',5'-cyclic-AMP phosphodiesterase 4D; assay: Inhibition of full-length PDE4D2 (unknown origin) using FAM-cAMP as substrate preincubated with compound for 15 mins followed by substrate addition and measured after 30 mins by fluorescence polarization based IMAP assay
RAW264.7 [4] = assay: Anti-inflammatory activity in mouse RAW264.7 cells assessed as inhibition of LPS-induced TNF-alpha production incubated for 24 hrs by ELISA; type: functional, cell-based; details: RAW264.7, 24 h

T1 sequence (Q08499 whole entry): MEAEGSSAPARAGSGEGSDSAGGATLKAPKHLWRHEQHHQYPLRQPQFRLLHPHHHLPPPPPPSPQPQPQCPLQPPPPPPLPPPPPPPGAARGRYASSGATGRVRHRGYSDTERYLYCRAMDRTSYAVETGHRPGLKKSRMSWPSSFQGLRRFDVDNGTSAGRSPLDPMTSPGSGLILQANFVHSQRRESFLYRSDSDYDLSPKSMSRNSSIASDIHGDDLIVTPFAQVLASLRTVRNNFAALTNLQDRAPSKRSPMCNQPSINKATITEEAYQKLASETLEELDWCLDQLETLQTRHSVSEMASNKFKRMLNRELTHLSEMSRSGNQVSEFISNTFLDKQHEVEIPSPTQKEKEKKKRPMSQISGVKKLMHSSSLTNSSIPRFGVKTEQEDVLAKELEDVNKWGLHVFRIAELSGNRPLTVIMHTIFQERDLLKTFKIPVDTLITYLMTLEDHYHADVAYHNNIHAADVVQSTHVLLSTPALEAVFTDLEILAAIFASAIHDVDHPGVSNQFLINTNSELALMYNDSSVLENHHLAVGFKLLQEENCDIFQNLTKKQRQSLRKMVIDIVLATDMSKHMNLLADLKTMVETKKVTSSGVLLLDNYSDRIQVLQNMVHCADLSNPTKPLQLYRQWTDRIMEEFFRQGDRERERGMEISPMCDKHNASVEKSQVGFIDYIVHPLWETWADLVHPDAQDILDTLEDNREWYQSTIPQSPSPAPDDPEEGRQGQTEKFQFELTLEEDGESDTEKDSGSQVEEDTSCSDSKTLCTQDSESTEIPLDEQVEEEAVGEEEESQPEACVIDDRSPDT

inhibition [1]	IC50 [3]	IC50 (RAW264.7 [4])	Structure (SMILES)	Activity (RAW264.7 [2])
33.3%			COc1cc(-c2nc(C(=O)NCc3c(F)cccc3F)c[nH]2)cc(OC)c1OC(F)F	
58.8%			Cn1ccc(NC(=O)c2c[nH]c(-c3ccc(OC(F)F)c(OCC4CC4)c3)n2)n1	18.46%
96.3%			O=C(NCc1ncccn1)c1c[nH]c(-c2ccc(OC(F)F)c(OC(F)F)c2)n1	4.06%
78.8%			Cn1cc(NC(=O)c2c[nH]c(-c3ccc(OC(F)F)c(OCC4CC4)c3)n2)cn1	27.5%
88.4%			O=C(NCc1ccc(F)cc1F)c1c[nH]c(-c2ccc(OC(F)F)c(OC(F)F)c2)n1	14.32%
96.7%			O=C(NCc1ccccn1)c1c[nH]c(-c2ccc(OC(F)F)c(OCC3CC3)c2)n1	6.39%
	18.2 nM		O=C(NCc1ncccn1)c1coc(-c2ccc(OC(F)F)c(OCC3CC3)c2)n1	4.98%
33.4%			O=C(Nc1nc2ccccc2s1)c1coc(-c2ccc(OC(F)F)c(OCC3CC3)c2)n1	25.84%
38.8%			O=C(Nc1ccccc1)c1coc(-c2ccc(OC(F)F)c(OCC3CC3)c2)n1	15.78%
70.1%			COC(=O)c1coc(-c2ccc(OC(F)F)c(OCC3CC3)c2)n1	26.96%
3.4%			Cc1ccc(-c2nc(C(=O)Nc3ccncc3)c[nH]2)cc1C	11.94%
8.4%			COc1cc(-c2nc(C(=O)Nc3ccc4ncsc4c3)c[nH]2)cc(OC)c1OC(F)F	
74.3%		59900 nM	O=C(Nc1nccs1)c1c[nH]c(-c2ccc(OC(F)F)c(OCC3CC3)c2)n1	
	27.3 nM		O=C(NCc1c(F)cccc1F)c1coc(-c2ccc(OC(F)F)c(OCC3CC3)c2)n1	9.32%
	15.9 nM		O=C(NCc1c(F)cccc1F)c1c[nH]c(-c2ccc(OC(F)F)c(OCC3CC3)c2)n1	13.88%
93.6%			O=C(NCc1cc(F)ccc1F)c1c[nH]c(-c2ccc(OC(F)F)c(OC(F)F)c2)n1	14.69%
94.1%			COc1ccc(CNC(=O)c2c[nH]c(-c3ccc(OC(F)F)c(OCC4CC4)c3)n2)cn1	7.74%
93.9%			O=C(NCC1CCOCC1)c1c[nH]c(-c2ccc(OC(F)F)c(OCC3CC3)c2)n1	24.03%
95.9%			O=C(NCc1cnccn1)c1c[nH]c(-c2ccc(OC(F)F)c(OCC3CC3)c2)n1	16.03%

Source: ChEMBL document CHEMBL6092169, “Development of selective heterocyclic PDE4 inhibitors for treatment of psoriasis” (Eur J Med Chem, 2024)
